Like-named read-outs stand apart in the source and are kept apart here.

The subject of experiment [1] is T. cruzi extracellular amastigotes. The experiment is described as follows: Extracellular amastigote assay (ATPlite luminescence, 48 hours). Format: cell-based. The settings on record: Trypanosoma cruzi, 48 hours; extracellular amastigotes, Fig. 5f, Extended Data Fig. 4d; read-out: IC50 (nM) T. cruzi extra-. The method, then:
(§1) The in vitro anti-T. cruzi amastiogote activity assay was performed and optimized based on the protocol described previously. The change in tdTomato fluorescence intensity was determined as a measurement of growth over 72 hours of culture. For assaying drug effects on extracellular amastigotes, trypomastigotes were collected from infected Vero cell cultures and converted in acidic media as previously described. Amastigotes (50,000/well) were incubated with 2-fold serial dilutions of compounds for 48 hours. The ATP production was used as an indication of growth in this case, and was measured by ATPlite Luminescence ATP Detection Assay System (PerkinElmer). Both fluorescence and luminescence were read using a BioTek Synergy Hybrid Multi-Mode reader equipped with the software Gene5 v 2.0 (BioTek). The dose-response curve was generated by […] analysis with GraphPad Prism v9.4.0 (GraphPad Software).

In experiment [2] the test system is T. cruzi intracellular amastigotes. The experiment is described as follows: In vitro anti-T. cruzi intracellular amastigote growth inhibition assay (tdTomato fluorescence over 72 hours, Vero cells). It is filed as cell-based, Trypanosoma cruzi. The settings on record: Trypanosoma cruzi, Vero. The method, then:
as §1

[3] abbreviates: in vitro, Fig. 1a, Extended Data Fig. 1a, read-out: T. cruzi IC50.
The mark [4] stands for this setting: intracellular T. cruzi, Fig. 5f, read-out: IC50 (nM) T. cruzi intra-.

Take `CC(C)[C@H](NC(=O)c1ccc2c(c1)B(O)OC2)C(=O)OCc1ccccc1` [AN10443]: the IC50 – broadly, the point on the concentration scale where inhibition reaches its midpoint – in experiment [1] amounted to 13 nM; in experiment [2] (setting [3]) it was 670 nM.

Regarding `CC(C)[C@H](NC(=O)c1ccc2c(c1F)B(O)OC2)C(=O)OCc1ccccc1` [AN11622], the IC50 was 37 nM in experiment [1] and above 1250 nM in experiment [2] (setting [4]).

In the case of `Cc1c(C(=O)N[C@H](C(=O)OCc2ccccc2)C(C)C)ccc2c1B(O)OC2` [AN11735], the IC50 in experiment [1] was determined as 1.2 nM.

Take `CCc1c(C(=O)N[C@H](C(=O)OCc2ccccc2)C(C)C)ccc2c1B(O)OC2` [AN14557]: the IC50 worked out at 1.5 nM in experiment [1] and 37 nM in experiment [2] (setting [4]).

For the compound `CC(C)C(NC(=O)c1ccc2c(c1C1CC1)B(O)OC2)C(=O)OCc1ccccc1` (stereo not drawn) [AN14577], the values for the IC50 in experiment [1] and in experiment [2] (setting [4]) were 240 nM and above 1250 nM, respectively.

On to `CC(C)c1c(C(=O)NC(C(=O)OCc2ccccc2)C(C)C)ccc2c1B(O)OC2` (stereo not drawn) [AN14630], for which the IC50 in experiment [1] was 13 nM; in experiment [2] (setting [4]) it was above 1250 nM.

In the case of `Cc1c(C(=O)N[C@H](C(=O)OC2CCOCC2)C(C)C)ccc2c1B(O)OC2` [AN15572], the IC50 in experiment [2] (setting [3]) is 11 nM.

The values above are taken from paper PMC9519446, “Discovery of an Orally Active Benzoxaborole Prodrug Effective in the Treatment of Chagas Disease in Non-human Primates” (Nature microbiology, 2022).
